Experimental findings from article PMC12664123, “Exploring Nirmatrelvir Derivatives Through P2 Substituent Modifications and Warhead Innovations Targeting the Main Protease of SARS‐CoV‐2” (Archiv Der Pharmazie, 2025) are described below.

The target of one series is WT SARS-CoV-2 Mpro (Severe acute respiratory syndrome coronavirus 2, UniProt P0DTD1). Description: Jump-dilution assay for reversibility of inhibition. Format: biochemical. Particulars: for mechanism of inhibition (reversibility): incubated 30 min at 100 nM M^pro and 200 nM inhibitor, 10-fold dilution, followed 30 min; for residual enzyme activity after jump dilution: 10-fold dilution to 10 nM M^pro, 20 nM inhibitor.

A short description of series [1]: Metabolic stability against liver microsomes, loss of parent compound by HPLC-UV. Conditions: 37°C; for remaining parent compound after 480 min: rat liver microsomes 0.2 mg/mL, NADPH, 100 µM compound, 480 min (8 h); for metabolic stability toward liver microsomes (in words): rat liver microsomes, up to 480 min. On the technique in general: Liver microsomes are vesicles of endoplasmic reticulum, rich in cytochrome P450 enzymes.

For series [2], the target named is T1, SARS-CoV-2 M^pro (Severe acute respiratory syndrome coronavirus 2, UniProt P0DTD1). Description: Determination of the inhibition constants (Ki) for SARS-CoV-2 Mpro, Morrison equation, QS1 fluorogenic substrate. Type of series: biochemical. Conditions: for Ki / Biological Activity (pKi): M^pro 25 nM, QS1 20 µM; for Ki: 30 min preincubation at 37°C, pH 7.2; for Biological Activity (pKi): supplement table, 30 min preincubation at 37 °C; for fold more potent than compound 22 / ΔpK i relative to oxime analog 22: warhead exchange, vs compound 22.

For series [3], the target named is T1, SARS-CoV-2 M^pro. In words: Determination of Kinact/KI for time-dependent (irreversible) inhibitors, progress curves. Format: biochemical. Particulars: for kinact/KI: read-out: Kinact/KI (supplement table).

Regarding `CO[C@@H]1C[C@@H](C(=O)N[C@H](C=NO)C[C@@H]2CCNC2=O)N(C(=O)[C@@H](NC(=O)C(F)(F)F)C(C)(C)C)C1` [Compound 22, (2S,4R)−1‐{(S)−3,3‐Dimethyl‐2‐(2,2,2‐Trifluoroacetamido)butanoyl}‐N‐[(S)−1‐(Hydroxyimino)−3‐[(S)−2‐Oxopyrrolidin‐3‐yl]Propan‐2‐yl]−4‐Methoxypyrrolidine‐2‐Carboxamide], the “mechanism of inhibition (reversibility)” value at WT SARS-CoV-2 Mpro is on record as “reversible”. The “remaining parent compound after 480 min” value in series [1] is reported as “ca. 60%”. Besides, on SARS-CoV-2 M^pro [2], the affinity corresponds to a Ki of 158 nM and the “Biological Activity (pKi)” value was 6.8 ± 0.01.

On to `CC(C)(C)[C@H](NC(=O)C(F)(F)F)C(=O)N1C[C@H](c2ccccc2)C[C@H]1C(=O)N[C@H](C=NO)C[C@@H]1CCNC1=O` [Compound 23, (2S,4S)−1‐{(S)−3,3‐Dimethyl‐2‐(2,2,2‐Trifluoroacetamido)Butanoyl}‐N‐[(S)−1‐(Hydroxyimino)−3‐[(S)−2‐Oxopyrrolidin‐3‐yl]Propan‐2‐yl]−4‐Phenylpyrrolidine‐2‐Carboxamide], for which, at SARS-CoV-2 M^pro [2], the inhibition constant Ki (usually the dissociation constant of the complex between target and ligand, obtained from inhibition or displacement) is 50.1 nM; the “Biological Activity (pKi)” value turned out to be 7.3 ± 0.01.

`C=CCO[C@@H]1C[C@@H](C(=O)N[C@H](C=NO)C[C@@H]2CCNC2=O)N(C(=O)[C@@H](NC(=O)C(F)(F)F)C(C)(C)C)C1` [Compound 24, (2S,4R)−4‐(Allyloxy)−1‐{(S)−3,3‐Dimethyl‐2‐(2,2,2‐Trifluoroacetamido)Butanoyl}‐N‐[(S)−1‐(Hydroxyimino)−3‐[(S)−2‐Oxopyrrolidin‐3‐yl]Propan‐2‐yl]Pyrrolidine‐2‐Carboxamide]: at SARS-CoV-2 M^pro [2], the inhibition constant Ki was 50.1 nM and the “Biological Activity (pKi)” value was found to be 7.3 ± 0.08.

Turning to `C#CCO[C@@H]1C[C@@H](C(=O)N[C@H](C=NO)C[C@@H]2CCNC2=O)N(C(=O)[C@@H](NC(=O)C(F)(F)F)C(C)(C)C)C1` [Compound 25, (2S,4R)−1‐{(S)−3,3‐Dimethyl‐2‐(2,2,2‐Trifluoroacetamido)Butanoyl}‐N‐[(S)−1‐(Hydroxyimino)−3‐[(S)−2‐Oxopyrrolidin‐3‐yl]Propan‐2‐yl]−4‐(Prop‐2‐yn‐1‐Yloxy)Pyrrolidine‐2‐Carboxamide], on SARS-CoV-2 M^pro [2], the Ki was 31.6 nM and the “Biological Activity (pKi)” value was found to be 7.5 ± 0.04.

As to `CCO[C@@H]1C[C@@H](C(=O)N[C@H](C=NO)C[C@@H]2CCNC2=O)N(C(=O)[C@@H](NC(=O)C(F)(F)F)C(C)(C)C)C1` [Compound 26, (2S,4R)−1‐{(S)−3,3‐Dimethyl‐2‐(2,2,2‐Trifluoroacetamido)Butanoyl}−4‐Ethoxy‐N‐[(S)−1‐(Hydroxyimino)−3‐[(S)−2‐Oxopyrrolidin‐3‐yl]Propan‐2‐yl]Pyrrolidine‐2‐Carboxamide], at SARS-CoV-2 M^pro [2], the inhibition constant Ki was 100 nM and the “Biological Activity (pKi)” value stood at 7.0 ± 0.02.

Consider `CC(C)(C)[C@H](NC(=O)C(F)(F)F)C(=O)N1C[C@H](C2CCCCC2)C[C@H]1C(=O)N[C@H](C=NO)C[C@@H]1CCNC1=O` [Compound 27, (2S,4S)−4‐Cyclohexyl‐1‐{(S)−3,3‐Dimethyl‐2‐(2,2,2‐Trifluoroacetamido)Butanoyl}‐N‐[(S)−1‐(Hydroxyimino)−3‐[(S)−2‐Oxopyrrolidin‐3‐yl]Propan‐2‐yl]Pyrrolidine‐2‐Carboxamide], for which, at SARS-CoV-2 M^pro [2], the affinity, expressed as Ki, was 100 nM and the “Biological Activity (pKi)” value was 7.0 ± 0.02.

Take `CC(=O)N[C@@H]1C[C@@H](C(=O)N[C@H](C=NO)C[C@@H]2CCNC2=O)N(C(=O)[C@@H](NC(=O)C(F)(F)F)C(C)(C)C)C1` [Compound 28, (2S,4R)−4‐Acetamido‐1‐{(S)−3,3‐Dimethyl‐2‐(2,2,2‐Trifluoroacetamido)Butanoyl}‐N‐[(S)−1‐(Hydroxyimino)−3‐[(S)−2‐Oxopyrrolidin‐3‐yl]Propan‐2‐yl]Pyrrolidine‐2‐Carboxamide]: at SARS-CoV-2 M^pro [2], the inhibition constant Ki was 100 nM and the “Biological Activity (pKi)” value is recorded as 7.0 ± 0.03.

On to `CC(C)(C)[C@H](NC(=O)C(F)(F)F)C(=O)N1C[C@H](OCc2ccccc2)C[C@H]1C(=O)N[C@H](C=NO)C[C@@H]1CCNC1=O` [Compound 29, (2S,4R)−4‐(Benzyloxy)−1‐{(S)−3,3‐Dimethyl‐2‐(2,2,2‐Trifluoroacetamido)Butanoyl}‐N‐[(S)−1‐(Hydroxyimino)−3‐[(S)−2‐Oxopyrrolidin‐3‐yl]Propan‐2‐yl]Pyrrolidine‐2‐Carboxamide], for which, at SARS-CoV-2 M^pro [2], the Ki is 200 nM and the “Biological Activity (pKi)” value amounted to 6.7 ± 0.02.

For `CO[C@@H]1C[C@@H](C(=O)N[C@H](/C=C(\F)S(=O)(=O)c2ccccc2)C[C@@H]2CCNC2=O)N(C(=O)[C@@H](NC(=O)C(F)(F)F)C(C)(C)C)C1` [Compound 30, (2S,4R)−1‐{(S)−3,3‐Dimethyl‐2‐(2,2,2‐Trifluoroacetamido)Butanoyl}‐N‐[(S,E)−4‐Fluoro‐1‐((S)−2‐Oxopyrrolidin‐3‐yl)−4‐(Phenylsulfonyl)but‐3‐en‐2‐yl]−4‐Methoxypyrrolidine‐2‐Carboxamide], the “mechanism of inhibition (reversibility)” value on WT SARS-CoV-2 Mpro is “reversible”. The “remaining parent compound after 480 min” value in series [1] is given as ~100%. At SARS-CoV-2 M^pro [2], the affinity, expressed as Ki, was 7.94 nM; the “Biological Activity (pKi)” value was found to be 8.1 ± 0.01; the “fold more potent than compound 22” value is ~20 fold; the “ΔpK i relative to oxime analog 22” value came to 1.3.

`CO[C@@H]1C[C@@H](C(=O)N[C@H](C#N)C[C@@H]2CCNC2=O)N(C(=O)[C@@H](NC(=O)C(F)(F)F)C(C)(C)C)C1` [Compound 31, (2S,4R)‐N‐[(S)−1‐Cyano‐2‐[(S)−2‐Oxopyrrolidin‐3‐yl]Ethyl]−1‐{(S)−3,3‐Dimethyl‐2‐(2,2,2‐Trifluoroacetamido)Butanoyl}−4‐Methoxypyrrolidine‐2‐Carboxamide]: the “remaining parent compound after 480 min” value in series [1] is ~100%. In addition, on SARS-CoV-2 M^pro [2], the Ki is 1.58 nM, the “Biological Activity (pKi)” value amounted to 8.8 ± 0.01, the “fold more potent than compound 22” value came to 100 fold and the “ΔpK i relative to oxime analog 22” value was determined as 2.0.

Turning to `CO[C@@H]1C[C@@H](C(=O)N[C@H](/C=C/S(=O)(=O)c2ccccc2)C[C@@H]2CCNC2=O)N(C(=O)[C@@H](NC(=O)C(F)(F)F)C(C)(C)C)C1` [Compound 32, (2S,4R)−1‐{(S)−3,3‐Dimethyl‐2‐(2,2,2‐Trifluoroacetamido)butanoyl}−4‐Methoxy‐N‐[(S,E)−1‐((S)−2‐Oxopyrrolidin‐3‐yl)−4‐(Phenylsulfonyl)but‐3‐en‐2‐yl]Pyrrolidine‐2‐Carboxamide], on WT SARS-CoV-2 Mpro, the “residual enzyme activity after jump dilution” value is recorded as “very low residual enzyme activity” and the “mechanism of inhibition (reversibility)” value was “irreversible”. The kinact/KI on SARS-CoV-2 M^pro [3] came out at 4400 M⁻¹ s⁻¹.

Regarding `COc1ccc(C(=O)ON=C[C@H](C[C@@H]2CCNC2=O)NC(=O)[C@@H]2C[C@@H](OC)CN2C(=O)[C@@H](NC(=O)C(F)(F)F)C(C)(C)C)cc1` [Compound 33, (2S,4R)−1‐{(S)−3,3‐Dimethyl‐2‐(2,2,2‐Trifluoroacetamido)Butanoyl}−4‐Methoxy‐N‐[(S)−1‐[((4‐Methoxybenzoyl)Oxy)Imino]−3‐[(S)−2‐Oxopyrrolidin‐3‐yl]Propan‐2‐yl]Pyrrolidine‐2‐Carboxamide], on WT SARS-CoV-2 Mpro, the “residual enzyme activity after jump dilution” value is reported as “very low residual enzyme activity” and the “mechanism of inhibition (reversibility)” value was “irreversible”. Also, the “metabolic stability toward liver microsomes (in words)” value in series [1] was “readily degraded”. For the same compound, the “fold higher reactivity than the vinyl sulfone (32)” value at SARS-CoV-2 M^pro [3] (Kinact/KI of 33 vs 32) is ~20 fold. For the same compound, the kinact/KI on SARS-CoV-2 M^pro [3] was determined as 77000 M⁻¹ s⁻¹.

For `CC(C)(C)[C@H](NC(=O)C(F)(F)F)C(=O)N1C[C@H](c2ccccc2)C[C@H]1C(=O)N[C@H](C#N)C[C@@H]1CCNC1=O` [Compound 34, (2S,4S)‐N‐[(S)−1‐Cyano‐2‐[(S)−2‐Oxopyrrolidin‐3‐yl]Ethyl]−1‐{(S)−3,3‐Dimethyl‐2‐(2,2,2‐Trifluoroacetamido)Butanoyl}−4‐Phenylpyrrolidine‐2‐Carboxamide], in series [1], the “metabolic stability toward liver microsomes (in words)” value was “comparable stability to the initial prototype 22”. Besides, on SARS-CoV-2 M^pro [2], the inhibition constant Ki was 1.26 nM and the “Biological Activity (pKi)” value is reported as 8.9 ± 0.01.

With `CC(C)(C)[C@H](NC(=O)C(F)(F)F)C(=O)N1C[C@H]2[C@@H]([C@H]1C(=O)N[C@H](C#N)C[C@@H]1CCNC1=O)C2(C)C` [nirmatrelvir], the “remaining parent compound after 480 min” value in series [1] is recorded as “ca. 80%”.

`C[C@]12CC[C@H]3[C@@H](CCC4=CC(=O)CC[C@@]43C)[C@@H]1CC[C@@H]2O` [testosterone, reference compound]: in series [1], the “metabolic stability toward liver microsomes (in words)” value was “readily degraded”.
